Experiment [1] has as its system tyrosine kinase activity in cell line lysates. Description: Peptide array profiling of 9 cell line lysates in the presence of MTKI or Tarceva. The experiment is classed as biochemical. As to conditions: GTL16 lysates; 5 μM. How it is done: To test whether other EGFR inhibitors, related to MTKI, such as Tarceva (erlotinib; OSI pharmaceuticals), are also amenable to this response prediction methodology, 9 cell lines were profiled in the presence of MTKI, or Tarceva (5 μM in both cases). […] The value of the previously derived MTKI prediction peptides is illustrated in Tables 6A to C. Based on these peptides also response to Tarceva can be predicted with identical accuracy as for MTKI (and with the same false predictions, in casu H2009 and MOLT4).

Experiment [2] deals with cMet kinase activity in cell lysates. Description: 140-tyrosine peptide array profiling of cell lysates with cMET inhibitor 605. The experiment is classed as biochemical. The note with it: responder cell lysates; 1 μM compound. An excerpt: To examine whether the currently available 140-tyrosine peptide arrays from Pamgene will also detect other kinase activities then those described above, another compound was profiled using the same methodology: this is an exquisitely selective inhibitor of the cMET receptor tyrosine kinase (see US2007 0203136 A1) and with formula: […]
(§1) As shown in Example 7, clear-cut differences in peptide phosphorylation inhibition by 605 could be identified in the responder lysates versus non-responder lysates. Note that the cMet signature peptide set features two peptides derived from Ron, the closest homologue to cMet. […] The 605 signature peptides show no overlap at all with the MTKI signature peptides set, consistent with the absence of any overlap in kinase specificity between MTKI and 605.

Experiment [3] concerns HGF-induced colony formation. Description: HGF-induced colony formation (responsiveness to 605). The experiment is classed as cell-based. Also noted: key: R = Responder to cMET; NR = Non-Responder to cMET.
The target of another experiment is Ron kinase (Homo sapiens, UniProt Q04912). Description: Purified Ron kinase inhibition. Type of experiment: biochemical. The note with it: 1 μM.
Sequence of Ron kinase (Q04912 25-1400): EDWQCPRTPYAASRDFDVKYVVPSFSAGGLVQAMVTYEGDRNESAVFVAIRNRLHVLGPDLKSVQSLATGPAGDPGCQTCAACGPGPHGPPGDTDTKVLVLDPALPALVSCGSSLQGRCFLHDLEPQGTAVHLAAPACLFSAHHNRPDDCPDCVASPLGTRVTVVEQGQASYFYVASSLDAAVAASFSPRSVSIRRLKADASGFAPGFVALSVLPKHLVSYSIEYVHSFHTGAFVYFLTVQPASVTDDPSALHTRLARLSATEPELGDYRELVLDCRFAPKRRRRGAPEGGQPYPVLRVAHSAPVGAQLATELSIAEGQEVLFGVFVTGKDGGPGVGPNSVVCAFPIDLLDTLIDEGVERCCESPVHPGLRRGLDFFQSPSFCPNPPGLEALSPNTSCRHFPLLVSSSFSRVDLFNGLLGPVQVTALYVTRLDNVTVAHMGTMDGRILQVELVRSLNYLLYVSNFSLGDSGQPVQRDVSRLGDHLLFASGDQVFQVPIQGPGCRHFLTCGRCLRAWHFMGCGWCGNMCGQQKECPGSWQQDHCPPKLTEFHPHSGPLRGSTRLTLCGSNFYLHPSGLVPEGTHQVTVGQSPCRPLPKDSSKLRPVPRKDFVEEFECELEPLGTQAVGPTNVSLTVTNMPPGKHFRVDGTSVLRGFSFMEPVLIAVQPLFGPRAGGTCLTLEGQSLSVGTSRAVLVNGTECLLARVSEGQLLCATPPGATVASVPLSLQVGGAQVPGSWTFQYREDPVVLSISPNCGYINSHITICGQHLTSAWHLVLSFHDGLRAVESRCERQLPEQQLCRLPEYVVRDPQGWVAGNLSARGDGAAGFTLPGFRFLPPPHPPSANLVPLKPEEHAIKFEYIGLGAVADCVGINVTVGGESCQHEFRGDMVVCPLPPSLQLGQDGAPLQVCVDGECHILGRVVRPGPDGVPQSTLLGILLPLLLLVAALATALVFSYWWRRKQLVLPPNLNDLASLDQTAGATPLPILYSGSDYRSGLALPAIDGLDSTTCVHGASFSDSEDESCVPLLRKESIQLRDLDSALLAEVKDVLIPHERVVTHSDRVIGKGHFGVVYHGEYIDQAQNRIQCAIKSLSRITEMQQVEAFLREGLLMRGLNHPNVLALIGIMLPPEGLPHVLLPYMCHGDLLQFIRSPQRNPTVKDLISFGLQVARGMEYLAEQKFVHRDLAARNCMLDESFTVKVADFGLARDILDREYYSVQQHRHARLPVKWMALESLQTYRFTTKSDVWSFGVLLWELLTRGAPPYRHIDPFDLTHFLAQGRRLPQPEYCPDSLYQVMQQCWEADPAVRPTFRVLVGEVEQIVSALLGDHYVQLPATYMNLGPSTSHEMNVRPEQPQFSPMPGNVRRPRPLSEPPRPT
Source text: as §1

Take `C#Cc1cccc(Nc2ncnc3cc(OCCOC)c(OCCOC)cc23)c1` [Tarceva, reference compound]: the “activity in lysate inhibition profile compared to MTKI” value in experiment [1] was “additional activity”.

In the case of `Cn1cc(-c2ccc3nnc(C(F)(F)c4ccc5ncccc5c4)n3n2)cn1` [compound 605], the “inhibition of peptide phosphorylation” value in experiment [2] is recorded as “significant inhibition”. Moreover, the response status entry in experiment [3] (A549 cell line) is “NR”; in experiment [3] (Caco2 cell line), “NR”; in experiment [3] (H322 cell line), “NR”; in experiment [3] (H441 cell line), “R”; in experiment [3] (H1792 cell line) it was “R”; in experiment [3] (H2106 cell line) it was “NR”. Moreover, the response status result in experiment [3] (H2122 cell line) was “NR”; in experiment [3] (Kato2 cell line) it was “R”; in experiment [3] (MKN45 cell line), “R”; in experiment [3] (N87 cell line), “NR”; in experiment [3] (SNU5 cell line), “R”; in experiment [3] (SNU484 cell line), “NR”. Further, the figures for the response status result in experiment [3] (WIDR cell line) and in experiment [3] (YKG cell line) were “R” and “NR”, respectively. Moreover, the “inhibition of purified Ron kinase” value against Ron kinase is given as “does not inhibit”.

For the origin of these results see patent US20100234238A1, “METHOD FOR PROFILING KINASE INHIBITORS” (Janssen Pharmaceutica N V, priority 2006, published 2010).
